The results in this text go back to patent publication US20100267784A1, “NOVEL 4,5-DIHYDROISOXAZOLES WITH ESTROGENIC ACTIVITY” (priority 2007, published 2010).

The target in series [1] is T1, ERα (Homo sapiens, UniProt P03372).
T1 sequence (P03372 1-595): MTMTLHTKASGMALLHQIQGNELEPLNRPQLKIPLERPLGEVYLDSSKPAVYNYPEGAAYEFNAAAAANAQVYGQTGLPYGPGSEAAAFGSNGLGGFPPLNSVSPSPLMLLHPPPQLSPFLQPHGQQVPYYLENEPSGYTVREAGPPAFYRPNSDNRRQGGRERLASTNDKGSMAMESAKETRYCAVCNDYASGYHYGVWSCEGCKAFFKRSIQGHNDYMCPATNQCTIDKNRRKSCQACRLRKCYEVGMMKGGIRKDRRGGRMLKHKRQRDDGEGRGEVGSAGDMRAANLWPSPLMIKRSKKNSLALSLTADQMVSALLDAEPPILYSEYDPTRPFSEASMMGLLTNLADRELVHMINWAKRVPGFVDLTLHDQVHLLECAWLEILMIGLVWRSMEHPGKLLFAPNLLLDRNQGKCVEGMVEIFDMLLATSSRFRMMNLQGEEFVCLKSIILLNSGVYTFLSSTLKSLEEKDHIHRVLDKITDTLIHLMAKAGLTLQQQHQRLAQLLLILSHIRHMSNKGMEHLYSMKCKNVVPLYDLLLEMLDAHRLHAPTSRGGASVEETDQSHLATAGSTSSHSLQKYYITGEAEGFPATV
In words: ERα reporter (luciferase) transactivation assay in transfected HEK293 cells. It is filed as cell-based. Set-up: expressed in transfected cells; host or cells: HEK293. The note with it: sample concentration 10 μM, 24 hours, mean of at least three independent transfections. The gist of the method:
(§1)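 HEK293 cells in phenol-free DMEM with 5% delipidated FBS were calcium-phosphate transfected for 4 h with ERα or ERβ vector, pERE2TATA-LUC reporter and pCMVβ control. Test compound (10 μM) or vehicle was applied for 24 h, then luciferase and β-galactosidase were measured. Values are means ±SEM of ≥3 transfections.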

Series [2] addresses T2, ERβ (Homo sapiens, UniProt Q92731). In words: ERβ reporter (luciferase) transactivation assay in transfected HEK293 cells. It is filed as cell-based. On the set-up: expressed in transfected cells; host or cells: HEK293. The note with it: for ERβ receptor activation relative to 10 nM E2 corresponding 100: sample concentration 10 μM, 24 hours, mean of at least three independent transfections. A digest of the protocol:
as §1

Series [3] deals with T1, ERα. In words: Competitive binding against [6,7-3H(N)]estradiol in COS-1 cells transfected with human ERα. Particulars: for IC50: ERα IC50, COS-1 cells, competition against labeled E2, 2 hours at 37° C.; for ERα RBA (relative binding affinity): relative to E2 = 100.0.
Protocol: (§2) Determination of Relative Binding Affinity (RBA).
(§3) Relative binding affinities (RBA) were measured by a competitive assay against [6,7-^3H(N)]estradiol (PerkinElmer) in transsiently transfected COS-1 cells. […] After 2 hours of incubation at 37° C. the medium was removed. The cells were removed from the wells to 150 μl of 1× phosphate buffered saline (PBS), transferred to Eppendorf tubes and centrifuged at 4° C. using 4000 g for 5 min, and then washed twice with 150 μl of PBS. The cell pellets were dissolved to 50 μl of 0.5M NaOH and incubated for 15 min at 56° C., after which the samples were transferred to liquid twinkle tubes and treated with 3 ml of OptiPhase HiSafe 3 twinkle solution (PerkinElmer).
Series [4] has as its target T2, ERβ. In words: Competitive binding against [6,7-3H(N)]estradiol in COS-1 cells transfected with human ERβ. The note with it: for IC50: ERβ IC50, COS-1 cells, competition against labeled E2, 2 hours at 37° C.; for ERβ RBA (relative binding affinity): relative to E2 = 100.0.
Protocol: as §2, §3

T2 sequence (Q92731 whole entry): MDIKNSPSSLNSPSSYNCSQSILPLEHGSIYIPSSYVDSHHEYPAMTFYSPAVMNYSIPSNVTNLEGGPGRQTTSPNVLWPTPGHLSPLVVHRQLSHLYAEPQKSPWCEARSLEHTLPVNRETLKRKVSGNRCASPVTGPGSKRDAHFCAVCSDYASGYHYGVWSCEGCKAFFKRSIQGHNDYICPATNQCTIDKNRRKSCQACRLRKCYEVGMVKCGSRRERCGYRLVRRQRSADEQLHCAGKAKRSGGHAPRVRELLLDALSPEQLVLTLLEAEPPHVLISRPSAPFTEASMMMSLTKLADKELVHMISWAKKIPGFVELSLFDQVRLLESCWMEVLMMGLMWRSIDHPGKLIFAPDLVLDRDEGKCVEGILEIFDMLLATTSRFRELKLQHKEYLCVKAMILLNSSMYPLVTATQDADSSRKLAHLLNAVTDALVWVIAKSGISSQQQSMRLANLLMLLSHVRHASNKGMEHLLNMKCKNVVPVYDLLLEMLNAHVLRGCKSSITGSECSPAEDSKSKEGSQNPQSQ

What is called IC50 is the concentration that inhibits the measured activity by half. For `Oc1ccc(CCCC2=NOC(c3ccccc3)C2)cc1` (single isomer, unassigned) [88a, 3-[3-(4-Hydroxy-phenyl)-propyl]-5-phenyl-4,5-dihydroisoxazole], the “ERα receptor activation relative to 10 nM E2 corresponding 100” value on ERα [1] is reported as 103.6%. The “ERβ receptor activation relative to 10 nM E2 corresponding 100” value on ERβ [2] turned out to be 44.7%. Further, on ERα [3], the IC50 is 12.5 nM and the “ERα RBA (relative binding affinity)” value worked out at 15.68%. Besides, on ERβ [4], the 50% inhibitory concentration (IC50) worked out at 2050 nM and the “ERβ RBA (relative binding affinity)” value amounted to 0.096%.
Turning to `Oc1ccc(CCCC2=NOC(c3ccccc3)C2)cc1` (single isomer, unassigned) [88b, 3-[3-(4-Hydroxy-phenyl)-propyl]-5-phenyl-4,5-dihydroisoxazole], at ERα [1], the “ERα receptor activation relative to 10 nM E2 corresponding 100” value came out at 65.0%. For the same compound, the “ERβ receptor activation relative to 10 nM E2 corresponding 100” value at ERβ [2] stood at 77.1%. Also, at ERα [3], the half-inhibitory concentration (IC50) worked out at 30 nM and the “ERα RBA (relative binding affinity)” value is 6.533%. Also, on ERβ [4], the IC50 was 1250 nM and the “ERβ RBA (relative binding affinity)” value is 0.157%.
Consider `CC1(c2ccccc2)CC(CCCc2ccc(O)cc2)=NO1` (single isomer, unassigned) [90a, 3-[3-(4-Hydroxy-phenyl)-propyl]-5-methyl-5-phenyl-4,5-dihydro-isoxazole], for which the “ERα receptor activation relative to 10 nM E2 corresponding 100” value at ERα [1] is recorded as 88.8%. Further, at ERβ [2], the “ERβ receptor activation relative to 10 nM E2 corresponding 100” value is 64.8%. For the same compound, on ERα [3], the IC50 stood at 250 nM and the “ERα RBA (relative binding affinity)” value came out at 0.784%. Further, on ERβ [4], the half-maximal inhibitory concentration (IC50) was determined as 3100 nM and the “ERβ RBA (relative binding affinity)” value is given as 0.063%.
In the case of `CC1(c2ccccc2)CC(CCCc2ccc(O)cc2)=NO1` (single isomer, unassigned) [90b, 3-[3-(4-Hydroxy-phenyl)-propyl]-5-methyl-5-phenyl-4,5-dihydro-isoxazole], at ERα [1], the “ERα receptor activation relative to 10 nM E2 corresponding 100” value is 86.5%. Moreover, at ERβ [2], the “ERβ receptor activation relative to 10 nM E2 corresponding 100” value is reported as 30.1%. Moreover, at ERα [3], the IC50 was 23000 nM and the “ERα RBA (relative binding affinity)” value came out at 0.009%. Also, on ERβ [4], the half-maximal inhibitory concentration (IC50) came to 20000 nM and the “ERβ RBA (relative binding affinity)” value was 0.010%.
As to `Oc1ccc(CCC2=NOC(Cc3ccccc3)C2)cc1` (single isomer, unassigned) [93a, 5-Benzyl-3-[2-(4-hydroxy-phenyl)-ethyl]-4,5-dihydro-isoxazole], the “ERα receptor activation relative to 10 nM E2 corresponding 100” value at ERα [1] is 171.1%. At ERβ [2], the “ERβ receptor activation relative to 10 nM E2 corresponding 100” value was 143.1%. Further, on ERα [3], the 50% inhibitory concentration (IC50) turned out to be 215 nM and the “ERα RBA (relative binding affinity)” value is given as 0.912%. Besides, at ERβ [4], the IC50 is 1250 nM and the “ERβ RBA (relative binding affinity)” value was 0.157%.
As to `Oc1ccc(CCC2=NOC(Cc3ccccc3)C2)cc1` (single isomer, unassigned) [93b, 5-Benzyl-3-[2-(4-hydroxy-phenyl)-ethyl]-4,5-dihydro-isoxazole], the “ERα receptor activation relative to 10 nM E2 corresponding 100” value on ERα [1] is recorded as 24.3%. Besides, the “ERβ receptor activation relative to 10 nM E2 corresponding 100” value on ERβ [2] was found to be 41.5%. Further, on ERα [3], the IC50 stood at 2150 nM and the “ERα RBA (relative binding affinity)” value is 0.091%. Further, on ERβ [4], the half-inhibitory concentration (IC50) was found to be 1090 nM and the “ERβ RBA (relative binding affinity)” value is 0.180%.
Take `c1ccc(CCCC2=NOC(c3ccccc3)C2)cc1` (single isomer, unassigned) [113a, 5-Phenyl-3-(3-phenyl-propyl)-4,5-dihydro-isoxazole]: the “ERα receptor activation relative to 10 nM E2 corresponding 100” value at ERα [1] came to 44.3%. Besides, the “ERβ receptor activation relative to 10 nM E2 corresponding 100” value at ERβ [2] is recorded as −3.1%. On ERα [3], the IC50 was found to be 1900 nM and the “ERα RBA (relative binding affinity)” value is recorded as 0.103%.
In the case of `c1ccc(CCCC2=NOC(c3ccccc3)C2)cc1` (single isomer, unassigned) [113b, 5-Phenyl-3-(3-phenyl-propyl)-4,5-dihydro-isoxazole], the “ERα receptor activation relative to 10 nM E2 corresponding 100” value at ERα [1] came out at 11.5%. Moreover, at ERβ [2], the “ERβ receptor activation relative to 10 nM E2 corresponding 100” value worked out at 17.2%. For the same compound, on ERα [3], the IC50 is 5600 nM and the “ERα RBA (relative binding affinity)” value turned out to be 0.035%. At ERβ [4], the 50% inhibitory concentration (IC50) turned out to be 5400 nM and the “ERβ RBA (relative binding affinity)” value is on record as 0.036%.
One may read the melting point as the temperature, or range, at which the solid turns liquid. For the compound `COc1ccc(C2=NOC(Cc3ccc(OC)c(OC)c3)C2)cc1` (stereo not drawn) [16ab, 5-(3,4-Dimethoxybenzyl)-3-(4-methoxyphenyl)-4,5-dihydroisoxazole], the melting point lay within 88.1 to 89.2 °C. Also, on ERα [1], the “ERα receptor activation relative to 10 nM E2 corresponding 100” value is given as −4.0%. Also, the activation at 10 µM at ERβ [2] (HEK293, 24 h, read-out: ERβ receptor activation relative to 10 nM E2 corresponding 100, sample concentration 10 μM, mean of at least three independent transfections) amounted to 7.3%.
`COc1ccc(C2=NOC(C)(Cc3ccccc3)C2)cc1` (stereo not drawn) [compound 53, 5-Benzyl-3-(4-methoxyphenyl)-5-methyl-4,5-dihydro-isoxazole] gave a melting point of 97.8 to 98.6 °C.
On to `CC1(Cc2ccccc2)CC(c2ccc3ccccc3c2)=NO1` (stereo not drawn) [compound 57, 5-Benzyl-3-naphthalen-2-yl-5-methyl-4,5-dihydro-isoxazole], for which the melting point fell in the range of 144.8 to 146.3 °C.
As to `COc1ccc(C2=NOC(CCc3ccccc3)C2)cc1` (stereo not drawn) [compound 60, 3-(4-Methoxy-phenyl)-5-phenethyl-4,5-dihydro-isoxazole], the melting point fell in the range of 69.7 to 71.9 °C.
`Fc1ccc(C2=NOC(CCc3ccccc3)C2)cc1` (stereo not drawn) [compound 62, 3-(4-Fluoro-phenyl)-5-phenethyl-4,5-dihydro-isoxazole] displayed a melting point of 69.8 to 71.2 °C.
As to `Clc1ccc(C2=NOC(CCc3ccccc3)C2)cc1` (stereo not drawn) [compound 63, 3-(4-Chloro-phenyl)-5-phenethyl-4,5-dihydro-isoxazole], the melting point was in the range of 74.8 to 75.7 °C.
Still for that read-out and setting: as for `COc1ccccc1C1=NOC(Cc2ccccc2)(c2ccccc2)C1` (stereo not drawn) [compound 74, 5-Benzyl-3-(2-methoxyphenyl)-5-phenyl-4,5-dihydro-isoxazole], the figure is 109.3 to 110.2 °C.
In turn, `Fc1ccccc1C1=NOC(Cc2ccccc2)(c2ccccc2)C1` (stereo not drawn) [compound 75, 5-Benzyl-3-(2-fluorophenyl)-5-phenyl-4,5-dihydro-isoxazole] came in with a melting point of 134.3 to 135.2 °C.
In turn, `Clc1ccc(C2=NOC(Cc3ccccc3)(c3ccccc3)C2)cc1` (stereo not drawn) [compound 76, 5-Benzyl-3-(4-chlorophenyl)-5-phenyl-4,5-dihydro-isoxazole] registered a melting point of 120.3 to 122.1 °C.
With `COc1cccc(C2=NOC(Cc3ccccc3)(c3ccccc3)C2)c1` (stereo not drawn) [compound 77, 5-Benzyl-5-phenyl-3-(3-methoxyphenyl)-4,5-dihydro-isoxazole], the melting point lay within 94.4 to 95.2 °C.
`Oc1cccc(CCC2=NOC(Cc3ccccc3)C2)c1` (stereo not drawn) [compound 92, 5-Benzyl-3-[2-(3-hydroxy-phenyl)-ethyl]-4,5-dihydro-isoxazole] displayed a melting point of 120.6 to 122.8 °C.
Take `Oc1ccc(CCC2=NOC(Cc3ccccc3)C2)cc1` (stereo not drawn) [compound 93, 5-Benzyl-3-[2-(4-hydroxy-phenyl)-ethyl]-4,5-dihydro-isoxazole]: the melting point lay within 143 to 144.8 °C.
In turn, `Oc1ccc(CC2CC(CCc3ccccc3)=NO2)cc1` (stereo not drawn) [compound 94, 5-(4-Hydroxy-benzyl)-3-phenethyl-4,5-dihydro-isoxazole] showed a melting point of 124.8 to 126.4 °C.
For the compound `Oc1ccccc1CCC1=NOC(Cc2ccc(F)cc2)C1` (stereo not drawn) [compound 97, 5-(4-Fluoro-benzyl)-3-[2-(2-hydroxy-phenyl)-ethyl]-4,5-dihydro-isoxazole], the melting point was 124.8 to 126.4 °C.
`c1ccc(CC2CC(c3ccccc3)=NO2)cc1` (stereo not drawn) [compound 107, 5-Benzyl-3-phenyl-4,5-dihydroisoxazole]: the melting point was 67 to 68 °C.
Compound `c1ccc(CCC2=NOC(c3ccccc3)C2)cc1` (stereo not drawn) [compound 110, 3-Phenethyl-5-phenyl-4,5-dihydroisoxazole] displayed a melting point of 35 to 36.3 °C.
Turning to `c1ccc(CCC2CC(c3ccccc3)=NO2)cc1` (stereo not drawn) [compound 111, 5-Phenethyl-3-phenyl-4,5-dihydroisoxazole], the melting point lay in the range of 66.1 to 67.2 °C.
`c1ccc(CCC2=NOC(CCc3ccccc3)C2)cc1` (stereo not drawn) [compound 116, 3,5-Di-phenethyl-4,5-dihydroisoxazole] had a melting point of 56.2 to 58 °C.
